# Measurements as given in patent US20100047373A9, “Method for Extracting Plants of the Genus Pelargonium, Extract Produced According to Said Method, and Use Thereof” (EMSPHARM GMBH, priority 2005, published 2010).
# Tested on: EMC virus/L929 (IFN) test model
# Test: Cytoprotective effect / IFN values in the EMC virus/L929 (IFN) test model
# Format: cell-based, murine
# Conditions: determined from 8 standard curves
# Protocol: Determining the Cytoprotective Effect by Obtaining the Values for IFN in the EMC Virus/L929 (IFN) Test Model
# L929 (IFN) cells (batch no. 5577) were cultured, trypsinized, washed and counted in 100-mL culture dishes. The suspension was adjusted to 2×10^5 cells/mL and sown in microtitre plates with 2×10^4 cells/well, which were incubated over night at 37° C., 5% CO2. After that, the supernatant was replaced by 100 μL each medium control, cell control, virus control with rMuIFN-γ control, rMuIFN-γ standard (100 U/mL) and test solution, all of which were diluted lineally.
# The samples were incubated for exactly eight hours at 37° C., 5% CO2. After the end of the incubation time, 100 μL each of the vital suspension used were pipetted into the vital and interferon controls and into the test solutions and again incubated over night at 37° C., 5% CO2.
# After 22 hours, fully developed viral activity appeared (cell lysis must be distinctly pronounced in the vital control), so that the lysis was interrupted. The supernatants were discarded via the wash basin 100 μl of a 0.5% crystal violet solution were pipetted into each well. […] The absorption of the crystal violet staining was determined on the ELISA reader at 550 nm. […] The ED50 value of the rMuIFN-γ standard was at 1,076 U/mL (determined from 8 standard curves).
substance,measurement,value
rMuIFN-γ standard: rMuIFN-γ standard (100 U/mL) used in the EMC virus/L929 (IFN) test,ED50 value of the rMuIFN-γ standard,"1,076 U/mL"
